Measurements reported in ChEMBL document CHEMBL1151454, “Failures in clinical treatment of Staphylococcus aureus Infection with daptomycin are associated with alterations in surface charge, membrane phospholipid asymmetry, and drug binding” (Antimicrob Agents Chemother, 2008).
In brackets after ≈: the same amount, converted by molar mass. One block for each molecule: values may come before it. Activity calls are given as the source filed them. The calls are words filed in the database; no cut-off is given here.

What was measured:
Staphylococcus aureus [1] = test: Reduction of membrane permeabilization in daptomycin-transitional Staphylococcus aureus isolate 629 bloodstream form isolated from patient with endocarditis assessed as calcein retention at 1.5 ug/ml after 120 mins by fluorometric analysis; type: functional, organism-based
Staphylococcus aureus [2] = test: Induction of cell membrane depolarization in methicillin-susceptible Staphylococcus aureus isolate 616 bloodstream form isolated from patient with endocarditis at 0.75 ug/ml after 60 mins by flow cytometry; type: functional, organism-based
Staphylococcus aureus [3] = test: Antibacterial activity against Staphylococcus aureus SA113 harboring null mutation in mprF gene by Etset; type: functional
Staphylococcus aureus [4] = test: Antibacterial activity against daptomycin-nonsusceptible Staphylococcus aureus isolate 703 bloodstream form isolated from patient with endocarditis by Etest; type: functional
Staphylococcus aureus [5] = test: Reduction of membrane permeabilization in daptomycin-nonsusceptible Staphylococcus aureus isolate 701 bloodstream form isolated from patient with endocarditis assessed as calcein retention at 1.5 ug/ml after 120 mins by fluorometric analysis; type: functional, organism-based
Staphylococcus aureus [6] = test: Induction of autolysis in daptomycin-nonsusceptible Staphylococcus aureus isolate 703 bloodstream form isolated from patient 6 ug/ml within 4 to 24 hrs; type: functional, organism-based
Staphylococcus aureus [7] = test: Antibacterial activity against daptomycin-nonsusceptible Staphylococcus aureus isolate 701 bloodstream form isolated from patient with endocarditis assessed as inhibition on heterogeneous subpopulation survival rate at 0.5 and 4 ug/ml after 48 hrs; type: functional, organism-based
Staphylococcus aureus [8] = test: Drug binding to daptomycin-nonsusceptible Staphylococcus aureus isolate 701 bloodstream form isolated from patient with endocarditis at 6 ug after 10 mins by radial diffusion assay; type: ADME, organism-based
Staphylococcus aureus [9] = test: Induction of cell membrane depolarization in daptomycin-nonsusceptible Staphylococcus aureus isolate 703 bloodstream form isolated from patient with endocarditis at 6 ug/ml after 60 mins by flow cytometry; type: functional, organism-based
Staphylococcus aureus [10] = test: Reduction of membrane permeabilization in daptomycin-nonsusceptible Staphylococcus aureus isolate 703 bloodstream form isolated from patient with endocarditis assessed as calcein retention at 1.5 ug/ml after 120 mins by fluorometric analysis; type: functional, organism-based
Staphylococcus aureus [11] = test: Antibacterial activity against daptomycin-transitional Staphylococcus aureus isolate 629 bloodstream form isolated from patient with endocarditis assessed as inhibition on heterogeneous subpopulation survival rate at 0.5 and 1 ug/ml after 48 hrs; type: functional, organism-based
Staphylococcus aureus [12] = test: Induction of cell membrane depolarization in daptomycin-transitional Staphylococcus aureus isolate 629 bloodstream form isolated from patient with endocarditis at 6 ug/ml after 60 mins by flow cytometry; type: functional, organism-based
Staphylococcus aureus [13] = test: Antibacterial activity against daptomycin-nonsusceptible Staphylococcus aureus isolate 701 bloodstream form isolated from patient with endocarditis by Etest; type: functional
Staphylococcus aureus [14] = test: Drug binding to daptomycin-transitional Staphylococcus aureus isolate 629 bloodstream form isolated from patient with endocarditis at 6 ug after 10 mins by radial diffusion assay; type: ADME, organism-based
Staphylococcus aureus [15] = test: Induction of cell membrane depolarization in daptomycin-transitional Staphylococcus aureus isolate 629 bloodstream form isolated from patient with endocarditis at 0.75 ug/ml after 60 mins by flow cytometry; type: functional, organism-based
Staphylococcus aureus [16] = test: Induction of cell membrane depolarization in daptomycin-nonsusceptible Staphylococcus aureus isolate 703 bloodstream form isolated from patient with endocarditis at 40 ug/ml after 60 mins by flow cytometry; type: functional, organism-based
Staphylococcus aureus [17] = test: Induction of cell membrane depolarization in daptomycin-nonsusceptible Staphylococcus aureus isolate 701 bloodstream form isolated from patient with endocarditis at 40 ug/ml after 60 mins by flow cytometry; type: functional, organism-based
Staphylococcus aureus [18] = test: Induction of cell membrane depolarization in daptomycin-nonsusceptible Staphylococcus aureus isolate 703 bloodstream form isolated from patient with endocarditis at 0.75 ug/ml after 60 mins by flow cytometry; type: functional, organism-based
Staphylococcus aureus [19] = test: Induction of autolysis in daptomycin-nonsusceptible Staphylococcus aureus isolate 701 bloodstream form isolated from patient 6 ug/ml within 4 to 24 hrs; type: functional, organism-based
Staphylococcus aureus [20] = test: Antibacterial activity against Staphylococcus aureus SA113 by Etset; type: functional
Staphylococcus aureus [21] = test: Drug binding to daptomycin-nonsusceptible Staphylococcus aureus isolate 703 bloodstream form isolated from patient with endocarditis at 6 ug after 10 mins by radial diffusion assay; type: ADME, organism-based
Staphylococcus aureus [22] = test: Drug binding to methicillin-susceptible Staphylococcus aureus isolate 616 bloodstream form isolated from patient with endocarditis at 6 ug after 10 mins by radial diffusion assay; type: ADME, organism-based; settings: in vivo
Staphylococcus aureus [23] = test: Antibacterial activity against daptomycin-transitional Staphylococcus aureus isolate 629 bloodstream form isolated from patient with endocarditis by Etest; type: functional
Staphylococcus aureus [24] = test: Antibacterial activity against methicillin-susceptible Staphylococcus aureus isolate 616 bloodstream form isolated from patient with endocarditis assessed as inhibition on heterogeneous subpopulation survival rate at 0.5 and 1 ug/ml after 48 hrs; type: functional, organism-based
Staphylococcus aureus [25] = test: Induction of cell membrane depolarization in methicillin-susceptible Staphylococcus aureus isolate 616 bloodstream form isolated from patient with endocarditis at 6 ug/ml after 60 mins by flow cytometry; type: functional, organism-based
Staphylococcus aureus [26] = test: Induction of cell membrane depolarization in daptomycin-nonsusceptible Staphylococcus aureus isolate 701 bloodstream form isolated from patient with endocarditis at 6 ug/ml after 60 mins by flow cytometry; type: functional, organism-based
Staphylococcus aureus [27] = test: Induction of autolysis in methicillin-susceptible Staphylococcus aureus isolate 616 bloodstream form isolated from patient 6 ug/ml within 4 to 24 hrs; type: functional, organism-based
Staphylococcus aureus [28] = test: Induction of cell membrane depolarization in daptomycin-transitional Staphylococcus aureus isolate 629 bloodstream form isolated from patient with endocarditis at 40 ug/ml after 60 mins by flow cytometry; type: functional, organism-based
Staphylococcus aureus [29] = test: Induction of cell membrane depolarization in daptomycin-nonsusceptible Staphylococcus aureus isolate 701 bloodstream form isolated from patient with endocarditis at 0.75 ug/ml after 60 mins by flow cytometry; type: functional, organism-based
Staphylococcus aureus [30] = test: Induction of cell membrane depolarization in methicillin-susceptible Staphylococcus aureus isolate 616 bloodstream form isolated from patient with endocarditis at 40 ug/ml after 60 mins by flow cytometry; type: functional, organism-based
Staphylococcus aureus [31] = test: Antibacterial activity against daptomycin-nonusceptible Staphylococcus aureus isolate 703 bloodstream form isolated from patient with endocarditis assessed as inhibition on heterogeneous subpopulation survival rate at 0.5 and 4 ug/ml after 48 hrs; type: functional, organism-based
Staphylococcus aureus [32] = test: Reduction of membrane permeabilization in methicillin-susceptible Staphylococcus aureus isolate 616 bloodstream form isolated from patient with endocarditis assessed as calcein retention at 1.5 ug/ml after 120 mins by fluorometric analysis; type: functional, organism-based
Staphylococcus aureus [33] = test: microbe, parasite or virus in culture; settings: 616
Description: Antibacterial activity against methicillin-susceptible Staphylococcus aureus isolate 616 bloodstream form isolated from patient with endocarditis by Etest

Staphylococcus aureus [34] = test: Drug binding to methicillin-susceptible Staphylococcus aureus isolate 616 bloodstream form isolated from patient with endocarditis at 40 ug after 10 mins by radial diffusion assay; type: ADME, organism-based; settings: in vivo
Staphylococcus aureus [35] = test: Drug binding to daptomycin-transitional Staphylococcus aureus isolate 629 bloodstream form isolated from patient with endocarditis at 40 ug after 10 mins by radial diffusion assay; type: ADME, organism-based
Staphylococcus aureus [36] = test: Drug binding to daptomycin-nonsusceptible Staphylococcus aureus isolate 701 bloodstream form isolated from patient with endocarditis at 40 ug after 10 mins by radial diffusion assay; type: ADME, organism-based
Staphylococcus aureus [37] = test: Drug binding to daptomycin-nonsusceptible Staphylococcus aureus isolate 703 bloodstream form isolated from patient with endocarditis at 40 ug after 10 mins by radial diffusion assay; type: ADME, organism-based

Molecule: CCCCCCCCCC(=O)N[C@@H](Cc1c[nH]c2ccccc12)C(=O)N[C@H](CC(N)=O)C(=O)N[C@@H](CC(=O)O)C(=O)N[C@@H]1C(=O)NCC(=O)N[C@@H](CCCN)C(=O)N[C@@H](CC(=O)O)C(=O)N[C@H](C)C(=O)N[C@@H](CC(=O)O)C(=O)NCC(=O)N[C@H](CO)C(=O)N[C@@H]([C@H](C)CC(=O)O)C(=O)N[C@@H](CC(=O)c2ccccc2N)C(=O)O[C@@H]1C
Activity (Staphylococcus aureus [1]): Active
Activity (Staphylococcus aureus [2]): Active
MIC (Staphylococcus aureus [3]): 0.094 µg/mL (≈ 0.058 µM)
MIC (Staphylococcus aureus [4]): 2 µg/mL (≈ 1.23 µM)
Activity (Staphylococcus aureus [5]): Active
Activity (Staphylococcus aureus [6]): inactive
Activity (Staphylococcus aureus [7]): inactive
Drug uptake (Staphylococcus aureus [8]): 2.32 µg/mL
Activity (Staphylococcus aureus [9]): inactive
Activity (Staphylococcus aureus [10]): Active
Activity (Staphylococcus aureus [11]): inactive
Activity (Staphylococcus aureus [12]): inactive
MIC (Staphylococcus aureus [13]): 2 µg/mL (≈ 1.23 µM)
Drug uptake (Staphylococcus aureus [14]): 1.61 µg/mL
Activity (Staphylococcus aureus [15]): inactive
Activity (Staphylococcus aureus [16]): inactive
Activity (Staphylococcus aureus [17]): inactive
Activity (Staphylococcus aureus [18]): inactive
Activity (Staphylococcus aureus [19]): inactive
MIC (Staphylococcus aureus [20]): 0.38 µg/mL (≈ 0.234 µM)
Drug uptake (Staphylococcus aureus [21]): 2.24 µg/mL
Drug uptake (Staphylococcus aureus [22]): 5.4 µg/mL
MIC (Staphylococcus aureus [23]): 0.75 µg/mL (≈ 0.463 µM)
Activity (Staphylococcus aureus [24]): inactive
Activity (Staphylococcus aureus [25]): Active
Activity (Staphylococcus aureus [26]): inactive
Activity (Staphylococcus aureus [27]): Active
Activity (Staphylococcus aureus [28]): inactive
Activity (Staphylococcus aureus [29]): inactive
Activity (Staphylococcus aureus [30]): inactive
Activity (Staphylococcus aureus [31]): inactive
Activity (Staphylococcus aureus [32]): inactive
MIC (Staphylococcus aureus [33]): 0.5 µg/mL (≈ 0.309 µM)

Drug uptake (Staphylococcus aureus [34]): 12.4 µg/mL
Drug uptake (Staphylococcus aureus [35]): 11.7 µg/mL
Drug uptake (Staphylococcus aureus [36]): 11.7 µg/mL
Drug uptake (Staphylococcus aureus [37]): 8 µg/mL
Molecule: H-ALYKKFKKKLLKSLKRLG-OH
